Read-outs that look alike come from different tables or passages of the source.
Assays:
HeLa cells = test: Compound screen by flow cytometry: HeLa cell count as surrogate readout of cell viability (z-scoreHeLa); assay type: cell-based, human; settings: for cell count rep 1 / z-scoreHeLa rep 1: replicate 1; for cell count rep 2 / z-scoreHeLa rep 2: replicate 2; for cell count rep 3 / z-scoreHeLa rep 3: replicate 3; for z-scoreHeLa mean: mean of 3 replicates
How it was run: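 HeLa cells were infected with GFP-MRSA (mean MOI 6.8 ± 4.6) for 1 h, and extracellular bacteria were killed with 30 µg/ml gentamicin. Cells were then incubated overnight with kinase inhibitors in 5 µg/ml gentamicin, in triplicate against DMSO controls. Flow-cytometric cell count served as a viability surrogate, expressed as a plate z-score.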

intracellular MRSA = assay type: cell-based, Staphylococcus aureus; settings: for %GFP+ rep 1 / z-scoreMRSA+ rep 1: replicate 1; for %GFP+ rep 2 / z-scoreMRSA+ rep 2: replicate 2; for %GFP+ rep 3 / z-scoreMRSA+ rep 3: replicate 3; for z-scoreMRSA+ mean: mean of 3 replicates
How it was run: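 HeLa, MRSA-GFP at MOI ~6.8, 1 h infection; gentamicin 30 µg/ml for 15 min; inhibitor plus gentamicin 5 µg/ml overnight, 37°C/5% CO2; triplicate plates; FACS %GFP+ and cell count; hit = z ≤ -2 MRSA+, z ≥ -3 count.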

[1] = PKIS compound screen raw data, HeLa cell count
[2] = PKIS compound screen, HeLa cell count
[3] = PKIS compound screen, Yes/No call
[4] = PKIS compound screen, Yes/No call on z-scoreHeLa
[5] = PKIS compounds raw data, HeLa cell count
[6] = PKIS compound screen raw data, MRSA-infected HeLa cells
[7] = PKIS compound screen, MRSA-infected HeLa cells
[8] = PKIS compound screen, Yes/No call (effect without cell death)
[9] = PKIS compound screen, Yes/No call on z-scoreMRSA+
[10] = PKIS compounds raw data, MRSA-infected HeLa cells
[11] = compound screen, HeLa cell count
[12] = Yes/No: effect without cell death
[13] = compound screen, MRSA-infected HeLa cells

Row | Compound | cell count rep 1 (HeLa cells; [1]) | cell count rep 2 (HeLa cells; [1]) | cell count rep 3 (HeLa cells; [1]) | cell death (HeLa cells; [3]) | z-scoreHeLa mean (HeLa cells; PKIS compound screen) | z-scoreHeLa rep 1 (HeLa cells; PKIS compound screen) | z-scoreHeLa rep 2 (HeLa cells; PKIS compound screen) | z-scoreHeLa rep 3 (HeLa cells; PKIS compound screen) | cell count rep 1 (HeLa cells; [5]) | cell count rep 2 (HeLa cells; [5]) | cell count rep 3 (HeLa cells; [5]) | effect (intracellular MRSA; [3]) | hit (intracellular MRSA; [8]) | z-scoreMRSA+ mean (intracellular MRSA; PKIS compound screen) | z-scoreMRSA+ rep 1 (intracellular MRSA; PKIS compound screen) | z-scoreMRSA+ rep 2 (intracellular MRSA; PKIS compound screen) | z-scoreMRSA+ rep 3 (intracellular MRSA; PKIS compound screen) | %GFP+ rep 1 (intracellular MRSA; [10]) | %GFP+ rep 2 (intracellular MRSA; [10]) | %GFP+ rep 3 (intracellular MRSA; [10]) | also measured
1 | Cn1cncc1-c1cc2c(Nc3ccc(OCc4ccccc4)cc3)ncnc2cn1 [GW281179X] | 28376 | 11001 | 11278 | No | -1.83 | -2.06 | -2.65 | -0.79 | 2614 | 2008 | 4357 | No | No | -0.18 | -0.25 | 0.13 | -0.42 | 25.8% | 26.7% | 25.0% | z-scoreHeLa mean (HeLa cells; [2]): -1.41; z-scoreHeLa rep 1 (HeLa cells; [2]): -0.31; z-scoreHeLa rep 2 (HeLa cells; [2]): -2.45; z-scoreHeLa rep 3 (HeLa cells; [2]): -1.49; cell death (HeLa cells; [4]): No; %GFP+ rep 1 (intracellular MRSA; [6]): 19.2%; %GFP+ rep 2 (intracellular MRSA; [6]): 17.8%; %GFP+ rep 3 (intracellular MRSA; [6]): 19.0%; z-scoreMRSA+ mean (intracellular MRSA; [7]): -0.31; z-scoreMRSA+ rep 1 (intracellular MRSA; [7]): 0.11; z-scoreMRSA+ rep 2 (intracellular MRSA; [7]): -0.44; z-scoreMRSA+ rep 3 (intracellular MRSA; [7]): -0.61; effect (intracellular MRSA; [9]): No
2 | Cc1cccc2c1NC(=O)C2=NNc1ccc(S(N)(=O)=O)cc1 [GW282536X] | 1823 | 2013 | 1046 |  |  |  |  |  |  |  |  |  |  |  |  |  |  |  |  |  | cell death (HeLa cells; Yes/No call from z-scoreHeLa): No; z-scoreHeLa mean (HeLa cells; [11]): -2.08; z-scoreHeLa rep 1 (HeLa cells; [11]): -1.82; z-scoreHeLa rep 2 (HeLa cells; [11]): -1.76; z-scoreHeLa rep 3 (HeLa cells; [11]): -2.65; %GFP+ rep 1 (intracellular MRSA; [6]): 21.7%; %GFP+ rep 2 (intracellular MRSA; [6]): 20.9%; %GFP+ rep 3 (intracellular MRSA; [6]): 20.2%; effect (intracellular MRSA; Yes/No call from z-scoreMRSA+): No; hit (intracellular MRSA; [12]): No; z-scoreMRSA+ mean (intracellular MRSA; [13]): -0.62; z-scoreMRSA+ rep 1 (intracellular MRSA; [13]): -0.83; z-scoreMRSA+ rep 2 (intracellular MRSA; [13]): -0.42; z-scoreMRSA+ rep 3 (intracellular MRSA; [13]): -0.60
3 | CN(C)c1cc2c(Nc3ccc4c(cnn4Cc4ccccc4)c3)ncnc2cn1 [GW282974X] |  |  |  | No | 1.58 | 0.95 | 1.79 | 2.01 | 5822 | 6633 | 11155 | No | No | -0.84 | -0.54 | -0.77 | -1.21 | 11.5% | 11.2% | 11.8% | 
4 | c1ccc(COc2ccc(Nc3ncnc4ccc(-c5ccco5)cc34)cc2)cc1 [GW284372X] |  |  |  | No | 0.48 | -0.33 | 0.65 | 1.13 | 4410 | 5123 | 9333 | No | No | -0.74 | -0.66 | -0.47 | -1.09 | 11.1% | 12.1% | 12.2% | 
5 | COc1cc2nccc(Nc3cccc(Oc4ccccc4)c3)c2cc1OC [GW284543A] | 34308 | 33464 | 39414 |  |  |  |  |  |  |  |  |  | No |  |  |  |  |  |  |  | z-scoreHeLa mean (HeLa cells; [2]): 0.58; z-scoreHeLa rep 1 (HeLa cells; [2]): 2.15; z-scoreHeLa rep 2 (HeLa cells; [2]): -0.25; z-scoreHeLa rep 3 (HeLa cells; [2]): -0.18; cell death (HeLa cells; [4]): No; %GFP+ rep 1 (intracellular MRSA; [6]): 19.7%; %GFP+ rep 2 (intracellular MRSA; [6]): 21.7%; %GFP+ rep 3 (intracellular MRSA; [6]): 21.6%; z-scoreMRSA+ mean (intracellular MRSA; [7]): 0.70; z-scoreMRSA+ rep 1 (intracellular MRSA; [7]): 0.58; z-scoreMRSA+ rep 2 (intracellular MRSA; [7]): 0.96; z-scoreMRSA+ rep 3 (intracellular MRSA; [7]): 0.55; effect (intracellular MRSA; [9]): No
6 | NS(=O)(=O)c1ccc(N/C=C2\C(=O)Nc3ccc4ncsc4c32)cc1 [GW297361X] |  |  |  | No | -1.04 | -1.65 | -0.59 | -0.88 | 2950 | 3493 | 5130 | No | No | 0.46 | 0.87 | 1.17 | -0.68 | 15.9% | 17.0% | 13.6% | 
7 | CC(C)c1ccc2c(c1)NC(=O)C2=NNc1ccc(S(N)(=O)=O)cc1 [GW300653X] |  |  |  |  |  |  |  |  | 3693 | 3535 | 5783 |  |  |  |  |  |  | 12.5% | 13.7% | 13.3% | cell death (HeLa cells; Yes/No call from z-scoreHeLa): No; z-scoreHeLa mean (HeLa cells; [11]): -0.70; z-scoreHeLa rep 1 (HeLa cells; [11]): -0.98; z-scoreHeLa rep 2 (HeLa cells; [11]): -0.55; z-scoreHeLa rep 3 (HeLa cells; [11]): -0.56; effect (intracellular MRSA; Yes/No call from z-scoreMRSA+): No; hit (intracellular MRSA; [12]): No; z-scoreMRSA+ mean (intracellular MRSA; [13]): -0.30; z-scoreMRSA+ rep 1 (intracellular MRSA; [13]): -0.21; z-scoreMRSA+ rep 2 (intracellular MRSA; [13]): 0.07; z-scoreMRSA+ rep 3 (intracellular MRSA; [13]): -0.77
8 | CN(C)c1cc2c(Nc3ccc4nc(Cc5ccccc5)[nH]c4c3)ncnc2cn1 [GW301888X] |  |  |  | No | 0.66 | 0.47 | 0.90 | 0.61 | 6836 | 7361 | 6557 | No | No | 0.0238 | -0.0117 | 0.30 | -0.22 | 27.0% | 27.6% | 26.1% | 

Reference: paper PMC10999543, “Identification of kinase modulators as host-directed therapeutics against intracellular methicillin-resistant Staphylococcus aureus” (Frontiers in Cellular and Infection Microbiology, 2024)
